According to patent US20150291593A1, “NOVEL HETEROARYL AND HETEROCYCLE COMPOUNDS, COMPOSITIONS AND METHODS” (HUTCHISON MEDIPHARMA LIMITED, priority 2012, published 2015):
pIC50: −log10 of the molar value.

What was measured:
[1] = target: T1, PI3Kγ (Mus musculus, UniProt Q9JHG7); assay: Acumen Assay - Raw264.7 p-AKT Assay (C5a stimulated); format: cell-based; details: Raw264.7 macrophage cells, compound 30 min, 10 nM C5a 5 min, p-AKT (Ser473) readout; read-out: PI3Kγ cell-C5a Raw264.7 IC50
T1 construct: endogenous in cells; host or cells: Raw264.7 macrophage cells
T1 sequence (Q9JHG7 whole entry): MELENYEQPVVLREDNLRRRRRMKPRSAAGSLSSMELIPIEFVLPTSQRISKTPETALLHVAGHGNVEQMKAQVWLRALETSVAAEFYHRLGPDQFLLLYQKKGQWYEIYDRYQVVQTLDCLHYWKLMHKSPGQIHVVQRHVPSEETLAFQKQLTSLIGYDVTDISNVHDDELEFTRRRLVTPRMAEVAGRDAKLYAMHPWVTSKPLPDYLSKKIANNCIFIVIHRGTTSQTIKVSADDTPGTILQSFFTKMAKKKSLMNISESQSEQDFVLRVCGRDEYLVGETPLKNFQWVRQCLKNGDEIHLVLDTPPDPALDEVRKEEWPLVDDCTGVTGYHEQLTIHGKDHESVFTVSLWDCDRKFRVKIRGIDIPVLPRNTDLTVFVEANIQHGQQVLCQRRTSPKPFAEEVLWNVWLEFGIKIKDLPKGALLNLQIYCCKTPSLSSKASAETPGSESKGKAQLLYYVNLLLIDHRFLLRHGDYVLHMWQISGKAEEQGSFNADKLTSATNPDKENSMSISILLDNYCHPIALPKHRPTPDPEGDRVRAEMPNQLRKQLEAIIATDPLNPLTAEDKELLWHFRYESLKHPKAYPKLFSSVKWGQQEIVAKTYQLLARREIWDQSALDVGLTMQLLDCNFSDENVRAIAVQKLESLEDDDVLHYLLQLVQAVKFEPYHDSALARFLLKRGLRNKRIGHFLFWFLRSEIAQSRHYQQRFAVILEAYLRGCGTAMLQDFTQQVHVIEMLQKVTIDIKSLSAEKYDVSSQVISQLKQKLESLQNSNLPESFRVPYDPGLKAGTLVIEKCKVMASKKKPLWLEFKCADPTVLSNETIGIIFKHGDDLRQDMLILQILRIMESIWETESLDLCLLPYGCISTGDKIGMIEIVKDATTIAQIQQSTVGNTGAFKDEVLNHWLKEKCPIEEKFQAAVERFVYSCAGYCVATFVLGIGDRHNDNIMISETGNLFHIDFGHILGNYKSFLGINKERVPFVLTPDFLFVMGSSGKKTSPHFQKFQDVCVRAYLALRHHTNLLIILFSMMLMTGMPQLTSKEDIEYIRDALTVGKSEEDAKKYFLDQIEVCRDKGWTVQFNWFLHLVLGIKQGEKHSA
Procedure: Acumen® eX3 (A Mμltilaser Microplate Cytometer For Enhanced High Content Screening): TTP LabTech
3×10^4 Raw264.7 macrophage cells were seeded into 96-well plates with DMEM+10% heat-inactivated FBS at […], 90 ul/well, overnight. After starvation for 3 hr at 37° C. under 5% CO2, Raw264.7 cells were treated with 10 ul/well various concentrations of compound or 0.5% DMSO for 30 min, and then stimulated with 10 ul/well 10 nM C5a for 5 min.
1.) Cells were fixed 110 μL of 4% pre-warmed Paraformaldehyde (2% final), incubate for 45 min at room temperature.
2.) Remove paraformaldehyde solution. Add 100 μL of ice-cold 0.1% Triton X-100 in PBS and leave at 4° C. for 30 min.
3.) Wash once in 100 μL PBS.
4.) Incubate with 100 μL blocking buffer (1% BSA, in PBS) for 2 hours at room temperature.
5.) Wash once for 5 min with 100 ul PBS.
6.) Incubate with 40 μL 1:200 dilution of phospho AKT (Ser473) rabbit antibody in antibody dilution buffer (0.1% BSA, in PBS) overnight at 4° C.
7.) Wash for 3 times for 10 min with 100 ul PBS.
8.) Incubate for 90 min at room temperature with 50 μL of goat anti-rabbit Alex488 antibody at a 1:1,000 dilution in antibody dilution buffer (0.1% BSA, in PBS). Cover plate in foil to keep out of light.
9.) Wash for 3 times for 10 min with 100 μL PBS.
10.) Add 50 μL of 1.5 μM Propidium Iodide solution to each well to determine cell number at a 1:1,000 dilution in PBS (stock: 1.5 mM).
11.) Incubate at room temperature for 30 min.
12.) Seal the plate with a black cover-seal (supplied with plate).
13.) Load the plate into the Acumen Explorer and scan with the appropriate instrument settings.

[2] = target: T2, p110γ (Homo sapiens, UniProt P48736); assay: Transcreener KINASE Assay, kinase inhibition of p110γ; format: biochemical; details: for pIC50: read-out: PI3Kγ IC50
T2 construct: purchased Invitrogen
T2 sequence (P48736 whole entry, species assumed): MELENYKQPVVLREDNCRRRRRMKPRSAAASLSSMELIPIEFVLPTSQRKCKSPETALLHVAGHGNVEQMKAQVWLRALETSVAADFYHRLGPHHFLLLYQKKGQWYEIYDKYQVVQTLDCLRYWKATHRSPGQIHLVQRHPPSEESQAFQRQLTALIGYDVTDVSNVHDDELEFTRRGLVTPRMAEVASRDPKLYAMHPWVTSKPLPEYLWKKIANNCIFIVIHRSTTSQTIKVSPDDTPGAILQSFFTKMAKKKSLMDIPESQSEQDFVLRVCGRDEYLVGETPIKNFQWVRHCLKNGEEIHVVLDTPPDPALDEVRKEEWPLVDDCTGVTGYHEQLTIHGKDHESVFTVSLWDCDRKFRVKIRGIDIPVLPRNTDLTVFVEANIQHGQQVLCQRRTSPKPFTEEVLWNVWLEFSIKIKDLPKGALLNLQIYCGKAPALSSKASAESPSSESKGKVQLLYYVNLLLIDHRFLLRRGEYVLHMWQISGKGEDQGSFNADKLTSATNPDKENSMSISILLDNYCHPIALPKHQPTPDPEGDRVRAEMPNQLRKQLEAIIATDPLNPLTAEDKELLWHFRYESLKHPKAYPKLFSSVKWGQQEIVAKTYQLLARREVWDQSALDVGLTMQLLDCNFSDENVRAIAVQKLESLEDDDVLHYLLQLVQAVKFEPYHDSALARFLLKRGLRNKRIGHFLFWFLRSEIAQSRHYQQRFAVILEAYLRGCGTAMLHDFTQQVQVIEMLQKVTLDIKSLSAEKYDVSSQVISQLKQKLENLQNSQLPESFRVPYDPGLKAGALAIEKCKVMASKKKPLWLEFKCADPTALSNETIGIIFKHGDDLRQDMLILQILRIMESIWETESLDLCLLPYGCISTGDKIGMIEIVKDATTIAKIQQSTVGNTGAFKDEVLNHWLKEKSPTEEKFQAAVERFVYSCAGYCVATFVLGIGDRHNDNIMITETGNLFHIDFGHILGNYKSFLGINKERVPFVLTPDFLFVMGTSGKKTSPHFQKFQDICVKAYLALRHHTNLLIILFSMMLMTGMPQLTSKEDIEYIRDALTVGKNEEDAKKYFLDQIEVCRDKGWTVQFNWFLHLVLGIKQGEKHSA
Procedure: PI3K kinases including p110α/p85α, p110δ/p85α and p110γ are purchased from Invitrogen, and p110β/p85α is from Millipore. Primary screening data and IC50 values are measured using Transcreener™ KINASE Assay (Bellbrook, Catalog #3003-10K). […] It is a universal, homogenous, high throughput screening (HTS) technology using a far-red, competitive fluorescence polarization immunoassay based on the detection of ADP to monitor the activity of enzymes that catalyze group transfer reactions. Briefly, the Transcreener KINASE Assay is designed as a simple two-part, endpoint assay. […] The plate is sealed and incubated for 80 min at room temperature. Next, 25 ul ADP detection mix is added per well. The plate is sealed again and incubated for 60 min at room temperature, and then measure fluorescence polarization by Tecan Infinite F500 Reader. Data is analyzed and IC50s are generated using the add-in software for Microsoft Excel, Xlfit™ (version 2.0).

[3] = target: T3, p110δ/p85α (Homo sapiens, UniProt O00329); assay: Transcreener KINASE Assay, kinase inhibition of p110δ/p85α; format: biochemical; details: for pIC50: read-out: PI3Kδ IC50
T3 construct: purchased Invitrogen
T3 sequence (O00329 whole entry, species assumed): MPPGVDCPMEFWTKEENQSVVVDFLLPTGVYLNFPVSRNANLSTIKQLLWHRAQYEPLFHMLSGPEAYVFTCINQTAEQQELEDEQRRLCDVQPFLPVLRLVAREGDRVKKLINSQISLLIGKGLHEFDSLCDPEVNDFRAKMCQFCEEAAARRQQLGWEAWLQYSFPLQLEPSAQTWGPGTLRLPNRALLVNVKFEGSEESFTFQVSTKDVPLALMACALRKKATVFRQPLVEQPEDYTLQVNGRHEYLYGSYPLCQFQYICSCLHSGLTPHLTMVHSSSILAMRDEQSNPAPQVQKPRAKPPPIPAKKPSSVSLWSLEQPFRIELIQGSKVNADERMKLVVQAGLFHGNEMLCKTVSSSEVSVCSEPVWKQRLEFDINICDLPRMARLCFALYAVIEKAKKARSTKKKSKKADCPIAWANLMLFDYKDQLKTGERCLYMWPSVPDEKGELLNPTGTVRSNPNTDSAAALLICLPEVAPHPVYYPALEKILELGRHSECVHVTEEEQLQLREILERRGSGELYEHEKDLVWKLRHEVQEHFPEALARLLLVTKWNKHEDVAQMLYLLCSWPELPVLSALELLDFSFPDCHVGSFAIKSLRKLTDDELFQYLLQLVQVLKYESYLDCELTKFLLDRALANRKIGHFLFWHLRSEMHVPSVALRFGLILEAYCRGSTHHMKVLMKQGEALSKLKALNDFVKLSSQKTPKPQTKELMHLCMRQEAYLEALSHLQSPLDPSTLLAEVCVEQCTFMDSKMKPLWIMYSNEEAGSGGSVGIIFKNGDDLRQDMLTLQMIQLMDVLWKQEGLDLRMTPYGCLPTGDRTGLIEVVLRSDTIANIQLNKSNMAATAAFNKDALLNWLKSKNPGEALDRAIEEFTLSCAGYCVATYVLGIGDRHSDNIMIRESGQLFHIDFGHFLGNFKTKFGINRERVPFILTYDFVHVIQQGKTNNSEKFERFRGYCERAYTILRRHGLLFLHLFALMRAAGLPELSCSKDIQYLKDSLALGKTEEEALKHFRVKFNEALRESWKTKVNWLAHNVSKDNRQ
T3 sequence (P27986 whole entry partner, species assumed): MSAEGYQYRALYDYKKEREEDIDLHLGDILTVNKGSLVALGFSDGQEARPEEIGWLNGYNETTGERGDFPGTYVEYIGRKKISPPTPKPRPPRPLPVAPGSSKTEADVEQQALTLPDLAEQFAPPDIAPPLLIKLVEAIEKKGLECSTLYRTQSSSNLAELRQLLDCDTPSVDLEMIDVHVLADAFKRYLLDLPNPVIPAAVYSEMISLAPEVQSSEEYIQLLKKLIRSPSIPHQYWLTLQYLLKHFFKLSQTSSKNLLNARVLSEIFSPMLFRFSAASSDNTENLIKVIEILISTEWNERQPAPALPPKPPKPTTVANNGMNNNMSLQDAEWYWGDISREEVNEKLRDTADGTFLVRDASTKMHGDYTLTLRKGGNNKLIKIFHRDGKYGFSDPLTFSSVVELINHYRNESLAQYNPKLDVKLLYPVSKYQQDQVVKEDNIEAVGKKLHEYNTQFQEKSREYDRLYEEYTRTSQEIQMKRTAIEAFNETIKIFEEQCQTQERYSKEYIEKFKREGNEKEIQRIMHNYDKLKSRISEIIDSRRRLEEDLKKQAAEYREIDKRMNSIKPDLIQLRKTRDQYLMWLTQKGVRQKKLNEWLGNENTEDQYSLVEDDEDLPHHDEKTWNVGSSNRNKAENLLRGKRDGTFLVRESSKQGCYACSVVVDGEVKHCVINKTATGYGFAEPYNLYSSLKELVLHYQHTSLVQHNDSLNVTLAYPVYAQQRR
Procedure: (§1) PI3K kinases including p110α/p85α, p110δ/p85α and p110γ are purchased from Invitrogen, and p110β/p85α is from Millipore.
(§2) Primary screening data and IC50 values are measured using Transcreener™ KINASE Assay (Bellbrook, Catalog #3003-10K). […] It is a universal, homogenous, high throughput screening (HTS) technology using a far-red, competitive fluorescence polarization immunoassay based on the detection of ADP to monitor the activity of enzymes that catalyze group transfer reactions. Briefly, the Transcreener KINASE Assay is designed as a simple two-part, endpoint assay.
(§3) In the first step, the 25 ul kinase reaction is performed by preparing a reaction mixture containing 5 ul test compound (2% DMSO final concentration), 10 ul kinase, buffer (50 mM HEPES, 100 mM NaCl, 1 mM EGTA, 0.03% CHAPS, 3 mM MgCl2, and freshly supplemented 1 mM DTT), and 10 ul 30 uM PIP2/10 uM ATP. The plate is sealed and incubated for 80 min at room temperature. Next, 25 ul ADP detection mix is added per well. The plate is sealed again and incubated for 60 min at room temperature, and then measure fluorescence polarization by Tecan Infinite F500 Reader.
(§4) Data is analyzed and IC50s are generated using the add-in software for Microsoft Excel, Xlfit™ (version 2.0). IH %=(ADP amount under 2% DMSO-ADP amount under test compound)/ADP amount under 2% DMSO.

[4] = target: T4, p110β/p85α (Homo sapiens, UniProt P42338); assay: Transcreener KINASE Assay, kinase inhibition of p110β/p85α; format: biochemical; details: for pIC50: read-out: PI3Kβ IC50
T4 construct: purchased Millipore
Procedure: as §1, §2, §3, §4

[5] = target: T5, p110α/p85α (Homo sapiens, UniProt P42336); assay: Transcreener KINASE Assay, kinase inhibition of p110α/p85α; format: biochemical
T5 construct: purchased Invitrogen
T5 sequence (P42336 whole entry, species assumed): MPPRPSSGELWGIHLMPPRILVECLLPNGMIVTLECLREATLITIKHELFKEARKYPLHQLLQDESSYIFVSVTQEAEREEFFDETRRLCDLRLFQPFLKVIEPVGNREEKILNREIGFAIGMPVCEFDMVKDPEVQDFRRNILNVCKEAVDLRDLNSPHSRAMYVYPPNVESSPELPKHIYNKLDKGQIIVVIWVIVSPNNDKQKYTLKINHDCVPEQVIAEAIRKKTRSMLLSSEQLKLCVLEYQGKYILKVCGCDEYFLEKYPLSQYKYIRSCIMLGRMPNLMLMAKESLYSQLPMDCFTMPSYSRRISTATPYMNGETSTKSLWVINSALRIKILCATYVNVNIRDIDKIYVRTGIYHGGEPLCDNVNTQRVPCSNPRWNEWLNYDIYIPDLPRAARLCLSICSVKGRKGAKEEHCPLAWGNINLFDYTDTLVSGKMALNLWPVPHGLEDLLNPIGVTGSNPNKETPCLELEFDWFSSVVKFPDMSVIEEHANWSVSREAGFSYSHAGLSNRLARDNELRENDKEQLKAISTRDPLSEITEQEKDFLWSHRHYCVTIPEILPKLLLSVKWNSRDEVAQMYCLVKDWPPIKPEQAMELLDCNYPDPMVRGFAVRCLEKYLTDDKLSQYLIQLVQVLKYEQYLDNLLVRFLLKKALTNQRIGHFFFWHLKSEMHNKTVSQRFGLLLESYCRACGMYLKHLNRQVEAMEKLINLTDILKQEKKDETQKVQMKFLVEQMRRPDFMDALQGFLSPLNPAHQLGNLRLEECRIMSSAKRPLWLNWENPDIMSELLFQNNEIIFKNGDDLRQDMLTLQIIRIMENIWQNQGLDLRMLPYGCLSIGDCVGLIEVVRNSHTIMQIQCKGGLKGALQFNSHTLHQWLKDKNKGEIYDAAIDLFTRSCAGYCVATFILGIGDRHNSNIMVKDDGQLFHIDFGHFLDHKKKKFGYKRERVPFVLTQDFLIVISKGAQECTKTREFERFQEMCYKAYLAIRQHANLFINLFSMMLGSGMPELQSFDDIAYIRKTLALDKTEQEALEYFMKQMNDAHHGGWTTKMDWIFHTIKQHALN
T5 sequence (P27986 whole entry partner, species assumed): as the sequence (P27986 whole entry partner, species assumed) above
Procedure: as §1, §2, §3, §4

SMILES	pIC50 [1]	further results
N#Cc1c[nH]c2ncnc(N3CCC[C@H]3c3nn4cccc4c(=O)n3-c3ccccc3)c12 [Compound 1, (S)-4-(2-(4-oxo-3-phenyl-3,4-dihydropyrrolo[1,2-f][1,2,4]triazin-2-yl)pyrrolidin-1-yl)-7H-pyrrolo[2,3-d]pyrimidine-5-carbonitrile]		PI3Kγ IH % @ 1 uM [2]: 91.9%; PI3Kα IH % @ 1 uM [5]: 50.8%; PI3Kδ IH % @ 1 uM [3]: 97.8%; pIC50 [3]: 8.70; PI3Kβ IH % @ 1 uM [4]: 47.7%
Nc1nc(N2CCC[C@H]2c2nn3cccc3c(=O)n2-c2ccccc2)c2nc[nH]c2n1 [Compound 2]		PI3Kγ IH % @ 1 uM [2]: 98.8%; PI3Kα IH % @ 1 uM [5]: 5.1%; PI3Kδ IH % @ 1 uM [3]: 98.2%; PI3Kβ IH % @ 1 uM [4]: 38.0%
O=c1c2c(F)ccn2nc([C@@H]2CCCN2c2ncnc3[nH]cnc23)n1-c1cccc(F)c1 [Compound 191]	7.27	
CC(=O)c1cnc(N)nc1N1C[C@H](C)[C@H]1c1nn2ccc(Cl)c2c(=O)n1-c1ccc(F)cc1 [Compound 206]	8.30	
N#Cc1cnc(N)nc1N1CCC[C@H]1c1nn2ccc(Cl)c2c(=O)n1-c1ccccc1 [Compound 207]	7.66	
N#Cc1cnc(N)nc1N1CC[C@H]1c1nn2ccc(Cl)c2c(=O)n1-c1ccccc1 [Compound 212]		pIC50 ([5]; read-out: PI3Kα IC50): < 6.00
N#Cc1c[nH]c2ncnc(N3C[C@@H](F)C[C@H]3c3nn4ccc(Cl)c4c(=O)n3-c3cccc(F)c3)c12 [Compound 213]	8.70	
O=c1c2c(Cl)ccn2nc([C@@H]2C[C@H](F)CN2c2ncnc3[nH]cnc23)n1-c1cccc(F)c1 [Compound 214]	7.82	
CC(=O)c1c[nH]c2ncnc(N3CCC[C@H]3c3nn4ccc(F)c4c(=O)n3-c3ccccc3)c12 [Compound 218]	7.38	
N#Cc1cnc(N)nc1N1C[C@@H](F)C[C@H]1c1nn2ccc(Cl)c2c(=O)n1-c1ccccc1 [Compound 229]	7.96	
N#Cc1cnc(N)nc1N1CCC[C@H]1c1nn2ccc(Cl)c2c(=O)n1-c1ccc(F)cc1 [Compound 231]	7.82	
N#Cc1cnc(N)nc1N1CCC[C@H]1c1nn2ccc(Cl)c2c(=O)n1-c1cccc(F)c1 [Compound 232]	7.36	
Nc1nc2c(c(N3CC[C@H]3c3nn4ccc(Cl)c4c(=O)n3-c3ccccc3)n1)C(=O)CCN2 [Compound 241]	7.66	
Nc1nc2c(c(N3CCC[C@H]3c3nn4ccc(Cl)c4c(=O)n3-c3ccccc3)n1)C(=O)CCN2 [Compound 242]	7.68	
CC(=O)c1c[nH]c2ncnc(N3C[C@@H](F)C[C@H]3c3nn4ccc(Cl)c4c(=O)n3-c3ccccc3)c12 [Compound 268]	7.72	PI3Kγ IH % @ 1 uM [2]: 100%
Cc1nc(N)nc(N2CC[C@H]2c2nn3ccc(Cl)c3c(=O)n2-c2ccccc2)c1C#N [Compound 283]	8.52	
CC(=O)c1cnc(N)nc1NC(C)c1cc2ncc(Cl)n2c(=O)n1-c1ccccc1 (stereo not drawn) [Compound 288]	7.37	
CC(=O)c1cnc(N)nc1N1CC[C@H]1c1nn2ccc(Cl)c2c(=O)n1-c1ccccc1 [Compound 299]	8.22	
CC(=O)c1cnc(N)nc1N1CC[C@H]1c1nn2ccc(Cl)c2c(=O)n1-c1ccc(F)cc1 [Compound 302]	7.37	
O=c1c2c(Cl)ccn2nc([C@@H]2CCCN2c2ncnc3[nH]cnc23)n1-c1ccccn1 [Compound 311]	7.27	pIC50 [3]: > 9.30
CC(=O)c1cnc(N)nc1N1CCCC1c1cn2ccc(Cl)c2c(=O)n1-c1ccccc1 (stereo not drawn) [Compound 321]	8.05	
CC(=O)c1cnc(N)nc1N1CC[C@H]1c1nn2ccc(F)c2c(=O)n1-c1ccccc1 [Compound 323]	7.10	
CC(=O)c1cnc(N)nc1N1C[C@H](C)[C@H]1c1nn2ccc(F)c2c(=O)n1-c1ccccc1 [Compound 324]	7.20	
CC(=O)c1c[nH]c2ncnc(N3CCC[C@H]3c3nn4ccc(Cl)c4c(=O)n3-c3ccccn3)c12 [Compound 340]	7.35	
N#Cc1c[nH]c2ncnc(N3CCCC3c3cn4ccc(Cl)c4c(=O)n3-c3ccccc3)c12 (stereo not drawn) [Compound 364]	8.22	
CC(=O)c1cnc(N)nc1N1CCC[C@H]1c1nn2ccc(Cl)c2c(=O)n1-c1ccccc1 [Compound 369, (S)-2-(1-(5-acetyl-2-aminopyrimidin-4-yl)pyrrolidin-2-yl)-5-chloro-3-phenylpyrrolo[2,1-f][1,2,4]triazin-4(3H)-one]	7.66	
N#Cc1c[nH]c2ncnc(N3CC(=O)C[C@H]3c3nn4ccc(Cl)c4c(=O)n3-c3ccccc3)c12 [Compound 380, (S)-4-(2-(5-chloro-4-oxo-3-phenyl-3,4-dihydropyrrolo[2,1-f][1,2,4]triazin-2-yl)-4-oxopyrrolidin-1-yl)-7H-pyrrolo[2,3-d]pyrimidine-5-carbonitrile]	7.72	

Now from value to compound, other results behind:

pIC50 [1]	SMILES	further results
7.20	CC(Nc1nc(N)nc2c1C(=O)CCN2)c1cn2ccc(F)c2c(=O)n1-c1ccccc1 (single isomer, unassigned) [Compound 407]	pIC50 [2]: 8.70; pIC50 [3]: 9.00; pIC50 [4]: 7.17
7.06	CC(Nc1nc(N)ncc1C#N)c1cn2ccc(F)c2c(=O)n1-c1ccccc1 (single isomer, unassigned) [Compound 449]	pIC50 [2]: 8.40; pIC50 [3]: 9.00; pIC50 [4]: 7.35
7.14	CC(Nc1ncnc2[nH]cc(F)c12)c1cc2ncc(Cl)n2c(=O)n1-c1ccccc1 (single isomer, unassigned) [Compound 450]	pIC50 [2]: 7.77; pIC50 [3]: 9.40; pIC50 [4]: 7.38
7.34	C[C@H]1CCN(c2nc(N)ncc2C#N)C1c1nn2ccc(Cl)c2c(=O)n1-c1ccccc1 (stereo partly drawn) [Compound 236]	pIC50 [2]: 8.40; pIC50 [3]: 8.70; pIC50 [4]: 7.09
7.19	CC(Nc1ncnc2[nH]cc(F)c12)c1cn2ccc(Cl)c2c(=O)n1-c1ccccc1 (stereo not drawn) [Compound 270]	
7.44	CC(=O)c1c[nH]c2ncnc(NC(C)c3cn4ccc(Cl)c4c(=O)n3-c3ccccc3)c12 (stereo not drawn) [Compound 272]	
8.52	CC(=O)c1cnc(N)nc1NC(C)c1cn2ccc(Cl)c2c(=O)n1-c1ccccc1 (stereo not drawn) [Compound 273]	
7.34	CC(Nc1ncnc2[nH]cc(F)c12)c1cc2ncc(Cl)n2c(=O)n1-c1ccccc1 (stereo not drawn) [Compound 285]	
7.10	Nc1ncc(C(=O)C(F)(F)F)c(N2CC[C@H]2c2nn3ccc(Cl)c3c(=O)n2-c2ccccc2)n1 [Compound 325]	pIC50 [4]: < 6.00
8.30	N#Cc1cnc(N)nc1N1C[C@@H](C#N)C[C@H]1c1nn2ccc(Cl)c2c(=O)n1-c1ccccc1 [Compound 351]	
7.96	N#Cc1cnc(N)nc1N1CC(=O)C[C@H]1c1nn2ccc(Cl)c2c(=O)n1-c1ccccc1 [Compound 403]	
